From patent publication US5268308A, “Immunoassay for pyridostigmine” (priority 1989, dated 1993)

biological target: Pyridostigmine Antibody; assay: Cross-reactivity with pyridostigmine antibody in RIA (competition with labeled pyridostigmine); type: binding, rabbit (male New Zealand white); settings: labeled pyridostigmine 5000 DPM; maximum tested 500 ng
Description: Antibodies to the pyridostigmine-BSA immunogen were produced by injecting male New Zealand white rabbits. Prior to injection, the immunogen was emulsified with an equal volume of complete Freund's adjuvant, purchased from Difco Laboratories. The initial immunization consisted of 0.8 mg of protein injected intracutaneously into the back of the rabbits. Booster injections containing 0.8 mg of immunogen and incomplete Freund's adjuvant were administered every one or two months for the next seven months. Blood was collected one week after each booster injection from the central ear vein. The blood was allowed to clot at room temperature and then centrifuged at 1500×g for 15 minutes. The separated serum was stored frozen at -20° C. until assayed for the presence of pyridostigmine antibody. […] FIG. 1 is the antibody dilution curve for pyridostigmine.
In the assay procedure tritiated pyridostigmine having specificity of […] was used as tracer. The dilution of tracer, antisera and pyridostigmine standards were made using 0.01 M phosphate buffer containing 150 mM sodium chloride with a pH of 7.4.. […] Both standard and sample tubes were always analyzed in duplicate. The assay was carried out according to the protocol shown in. Table 1 with the reagents were added to the assay tubes in the order shown in.
According to the protocol for the RIA of the present invention, after the addition of antisera, the contents of the tubes were mixed and incubated for 3 hours at 4° C. The antigen which bound to the antibody was separated by adding 100% saturated ammonium sulfate and centrifuging at 2500×g for 15 minutes. After aspiration of the supernatant, the precipitate was washed one time with 50% saturated ammonium sulfate; then the mixture was centrifuged and the supernatent removed. The precipitate was dissolved in 1.0 ml of distilled water, and the solution was transferred to a scintillation vial containing 10.0 ml of acquasol.
Cross-reactivity of various compounds with pyridostigmine antibody was determined in the RIA. […] Each compound was tested for cross-reactivity with the antibody. The maximum concentration of each compound tested was 500 ng.

Row | Structure (SMILES) | IC 50 (50% inhibition of binding of 3H-pyridostigmine to the antibody) [ng]
1 | C[n+]1cccc(O)c1 [3-Hydroxy-N-methyl-pyridostigmine] | > 500
2 | CN(C)C(=O)Oc1cccc([N+](C)(C)C)c1 [Neostigmine] | > 500
3 | CNC(=O)Oc1ccc2c(c1)[C@]1(C)CCN(C)[C@@H]1N2C [Physostigmmine] | > 500
4 | C[n+]1ccccc1/C=N/O [Pralidoxime Chloride] | > 500
